Data published in patent US11219625B2, “Inhibitors of N-linked glycosylation and methods using same” (YALE UNIVERSITY, priority 2015, dated 2022).

Legend:
[1] = system: EGFR; experiment: Surface biotinylation of EGFR, H3255 cells; assay type: cell-based; details: H3255, 10 μM NGI-1, 24 h
Procedure: FIGS. 3A-3F illustrate the finding that NGI-1 disrupts EGFR glycosylation and cell surface expression. FIG. 3A illustrates EGFR western blots from H3255 treated with or without 10 μM NGI-1 for 24 h. Molecular weight size shifts are compared to PNGase digestion and tunicamycin treatment alone. FIG. 3B illustrates EGFR localization in H3255 cells after 24 h 10 μM NGI-1 treatment analyzed by western blot. Plasma membrane proteins present on the surface of H3255 cells were biotinylated using a non-permeable form of biotin, sulfo-NHS—SS-biotin, and precipitated by streptavidin agarose beads. Biotin-labeled plasma membrane proteins and the fraction of non-biotinylated proteins were subjected to SDS-PAGE and analyzed by western blot against EGFR. FIG. 3C illustrates EGFR localization in H3255 cells after 24 h 10 μM NGI-1 treatment analyzed by confocal microscopy. H3255 cells were subjected to immunofluorescence for EGFR protein (red) counterstained with (CRT; green) and colocalization was determined by confocal microscopy. Nuclei were counterstained with ToPro3 (cyan). […] Bar, 10 μm. FIG. 3D illustrates quantification of colocalization using Image J Colormap Software. […] ITB1 localization after 10 μM NGI-1 for 48 h analyzed by (FIG. 3E) surface biotinylation (FIG. 3F) confocal microscopy (green). […]

[2] = system: lipid linked oligosaccharides (LLOs); experiment: FACE analysis of lipid linked oligosaccharides; assay type: cell-based; details: p<0.01
Procedure: Fluorophore assisted carbohydrate electrophoresis (FACE) was performed as previously described (Gao, et al., Glycobiology 2002, 12, 353-360; Gao, et al., J Biol Chem 2005, 280, 17901-17909). Control (Ac-Gln-Tyr-Thr-CONH2) and acceptor (Ac-Asn-Tyr-Thr-CONH2) peptides were used for permeabilized cell experiments. Metabolic labeling of Hela cells, transfection of prosaposin (pSAP) and steroid hormone binding globulin (SHBG) vectors, and knockdown of SIT3A and STT3B to monitor N-linked glycosylation knockdown were performed as described (Shrimal, et al., J Cell Biol 2013, 201, 81-95). Western blot analysis was performed as previously described (Bennett, et al., Transl Oncol 2013, 6, 382-391). The following primary antibodies were used: rabbit anti-EGFR (sc-03; Santa Cruz Biotechnology; 1:1000), rabbit anti-phospho (Tyr1173) EGF Receptor (Cell Signaling; 1:1000), rabbit anti-p21 Waf1/Cip1 (12D1; Cell Signaling; 1:1000), rabbit anti-Cyclin D1 (Cell Signaling; 1:1000), mouse anti-β-Actin (8H10D10; Cell Signaling; 1:1000). For phospho-protein array analysis, PC9 and A549 cells were cultured in 6-well plates in serum-containing medium and treated with or without 10 μM NGI-1 for 24 hours. […]

Q: `Cc1cnc(NC(=O)c2cc(S(=O)(=O)N(C)C)ccc2N2CCCC2)s1` [NGI-1, 5-(N,N-Dimethylsulfamoyl)-N-(5-methylthiazol-2-yl)-2-(pyrrolidin-1-yl)benzamide] was tested. Which “EGFR distribution, biotinylated vs non-biotinylated fraction” value [1] did it give?
A: predominantly found in the non-biotinylated intracellular fraction

Q: And the “increase of Glc3Man9Glcnac2 LLO levels” value [2]?
A: 31%
